Common to all, as to assay type: functional, cell-based
For assay [1], the system named is HL-60. Description: Cytotoxicity against human HL-60 cells assessed as inhibition of cell growth by CCK-8 assay.
Assay [2] deals with A549. Briefly: Cytotoxicity against human A549 cells assessed as inhibition of cell growth by CCK-8 assay. For orientation: Formazan colour is commonly taken as a measure of viable cells.
Assay [3] concerns MIA PaCa-2. Briefly: Cytotoxicity against human MIA PaCa-2 cells assessed as inhibition of cell growth by CCK-8 assay.
Assay [4] deals with SU.86.86. Briefly: Cytotoxicity against human SU-86-86 cells assessed as inhibition of cell growth by CCK-8 assay.
In assay [5] the test system is YAPC. Description: Cytotoxicity against human YAPC cells assessed as inhibition of cell growth by CCK-8 assay.

The structures appear in SMILES notation. Structures can show the parent of a compound that is named as a salt.

For the compound `C/C(=C\[C@H]1C[C@@](O)([C@@H]2CC[C@]34C[C@]23CC[C@@H]2[C@@]3(C)Cc5oc(-c6ccccc6)cc5C(C)(C)[C@@H]3C[C@H](O)[C@]24C)C(=O)O1)CO`, the IC50 in assay [1] and in assay [2] was greater than 10000 nM each time.
On to `C/C(=C\[C@@H]1OC(=O)[C@H]([C@@H]2CC[C@]34C[C@]23C=C[C@@H]2[C@@]3(C)CC=C(/C=C/c5ccccc5)C(C)(C)[C@@H]3C[C@H](O)[C@]24C)[C@H]1O)CO`, for which the values for the IC50 in assay [1], in assay [2] and in assay [3] were 280 nM, 1800 nM and 930 nM, respectively.
On to `COc1ccc([C@@H]2C=C3[C@H](C[C@]4(C)[C@H]5C=C[C@]67C[C@]6(CC[C@H]7[C@H]6CO[C@@H](/C=C(\C)CO)[C@@H]6O)[C@]5(C)[C@H](O)C[C@H]4C3(C)C)OO2)cc1`, for which the IC50 in assay [1] and in assay [2] was greater than 10000 nM each time.
As for `C/C(=C\[C@H]1C[C@@](O)([C@@H]2CC[C@]34C[C@]23C=C[C@@H]2[C@@]3(C)CC=C(/C=C\c5ccccc5)C(C)(C)[C@@H]3CC(=O)[C@]24C)C(=O)O1)CO`, the IC50 (commonly the concentration that gives 50% inhibition) in assay [1] came to 1300 nM; in assay [2], 3700 nM; in assay [3], 2800 nM.
As to `C/C(=C\[C@@H]1C[C@@](O)([C@@H]2CC[C@]34C[C@]23C=C[C@@H]2[C@@]3(C)CC=C(/C=C/c5ccccc5)C(C)(C)[C@@H]3CC(=O)[C@]24C)C(=O)O1)CO`, the IC50 in assay [1] is 1700 nM; in assay [2], 2200 nM; in assay [3], 770 nM.
Consider `C/C(=C\[C@@H]1OC(=O)[C@H]([C@@H]2CC[C@]34C[C@]23C=C[C@@H]2[C@@]3(C)CC(=O)/C(=C\C(=O)c5ccccc5)C(C)(C)[C@@H]3C[C@H](O)[C@]24C)[C@H]1O)CO`, for which the IC50 in assay [1] and in assay [2] was greater than 10000 nM in each case.
As to `C/C(=C\[C@H]1C[C@@](O)([C@@H]2CC[C@]34C[C@]23C=C[C@@H]2[C@@]3(C)CC(=O)/C(=C\C(=O)c5ccccc5)C(C)(C)[C@@H]3C[C@@H](O)[C@]24C)C(=O)O1)CO`, the IC50 in assay [1] was greater than 10000 nM; in assay [2] it was 9400 nM.
Turning to `COc1cccc2c1C(=O)c1c(O)c3c(c(O)c1C2=O)C[C@@](O)(C(=O)CO)C[C@@H]3O[C@H]1C[C@H](N)[C@H](O)[C@H](C)O1` [DOXORUBICIN HYDROCHLORIDE], the IC50 in assay [3] was determined as 250 nM; in assay [4], 330 nM; in assay [5] it was 310 nM.
For the compound `COc1ccc(C(=O)[C@@H]2O[C@]23C(=O)C[C@]2(C)[C@H]4C=C[C@]56C[C@]5(CC[C@H]6[C@H]5C(=O)O[C@@H](/C=C(\C)CO)[C@@H]5O)[C@]4(C)[C@H](O)C[C@H]2C3(C)C)cc1`, the IC50 in assay [1] and in assay [2] was greater than 10000 nM throughout.
For `C/C(=C\[C@H]1C[C@@](O)([C@@H]2CC[C@]34C[C@]23C=C[C@@H]2[C@@]3(C)CC=C5C[C@@H](c6ccccc6)OC[C@]5(C)[C@@H]3C[C@@H](O)[C@]24C)C(=O)O1)CO`, the results for the IC50 in assay [1] and in assay [2] were greater than 10000 nM and 1100 nM, respectively.
As to `C/C(=C\[C@@H]1OC(=O)[C@H]([C@@H]2CC[C@]34C[C@]23C=C[C@@H]2[C@@]3(C)CC=C(/C=C\c5ccccc5)C(C)(C)[C@@H]3C[C@@H](O)[C@]24C)[C@H]1O)CO`, the IC50 in assay [1] is 3300 nM; in assay [2], 9200 nM; in assay [3] it was greater than 10000 nM.
Take `C/C(=C\[C@H]1C[C@@H]([C@@H]2CC[C@]34C[C@]23C=C[C@@H]2[C@@]3(C)CC=C(/C=C/c5ccccc5)C(C)(C)[C@@H]3C[C@@H](O)[C@]24C)C(=O)O1)CO`: the IC50 in assay [1] was found to be 350 nM; in assay [2] it was 2800 nM; in assay [3], 670 nM; in assay [4], 1600 nM; in assay [5] it was 6700 nM.
For the compound `CC(=O)O[C@@]1(C)CO[C@@]2(C1)OC(=O)[C@H]([C@@H]1CC[C@]34C[C@]13C=C[C@@H]1[C@@]3(C)CC=C5C[C@@H](c6ccccc6)OC[C@]5(C)[C@@H]3C[C@H](O)[C@]14C)[C@H]2O`, the IC50 was greater than 10000 nM in assay [1] and 3300 nM in assay [2].
For the compound `COc1ccc(/C=C/C2=CC[C@]3(C)[C@H]4C=C[C@]56C[C@]5(CC[C@H]6[C@H]5C(=O)O[C@@H](/C=C(\C)CO)[C@@H]5O)[C@]4(C)[C@H](O)C[C@H]3C2(C)C)cc1`, the IC50 is 360 nM in assay [1]; 1200 nM in assay [2]; 390 nM in assay [3]; 1700 nM in assay [4]; greater than 10000 nM in assay [5].
For the compound `COc1ccc([C@H]2C=C3[C@@H](C[C@]4(C)[C@H]5C=C[C@]67C[C@]6(CC[C@H]7[C@H]6CO[C@@H](/C=C(\C)CO)[C@@H]6O)[C@]5(C)[C@H](O)C[C@H]4C3(C)C)OO2)cc1`, the IC50 in assay [1] and in assay [2] was greater than 10000 nM in each case.
Consider `C/C(=C\[C@@H]1OC(=O)[C@](O)([C@@H]2CC[C@]34C[C@]23C=C[C@@H]2[C@@]3(C)CC=C(/C=C/c5ccccc5)C(C)(C)[C@@H]3C[C@@H](O)[C@]24C)[C@H]1O)CO`, for which the IC50 in assay [1] was 1000 nM; in assay [2], 3800 nM; in assay [3], 960 nM.

(Values after ChEMBL document CHEMBL5226373, “Dichapetalins from the Twigs of Dichapetalum longipetalum with Cytotoxic Activities” (J Nat Prod, 2023).)
